Measurements taken from patent US20250129028A1, “COMPOUNDS AND METHODS FOR YAP/TEAD MODULATION AND INDICATIONS THEREFOR” (Opna Bio SA, priority 2022, published 2025).

System: TEAD-dependent transcription
Test: TEAD-dependent transcription cell-based reporter assay (MSTO-211H+12XGTIIC luciferase)
Set-up: species or system human
Conditions: Homo sapiens; MSTO-211H+12XGTIIC cell line, luciferase signal normalized to cell viability, 24 hours compound incubation; read-out: MSTO-211H GMean IC50 (uM) Cell Assay Reporter Cell Variant: TEAD
In short: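 MSTO-211H mesothelioma cells stably carrying a 12xGTIIC TEAD-response-element luciferase reporter, treated with serial compound dilutions for 24 h at 37 °C. Luminescence normalized to CellTiter-Fluor viability signal; % inhibition versus DMSO and 20 μM K-975 controls, IC50 by nonlinear regression.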

Structure (SMILES) | IC50 [µM]
CNC(=O)c1cccc(N2CCc3ccc(Oc4ccc(C(F)(F)F)cc4)cc3C2)n1 [P-0229, N-methyl-6-(7-(4-(trifluoromethyl)phen-oxy)-3,4-dihydroisoquin-olin-2(1H)-yl)picolin-amide] | 0.001 to 10
NS(=O)(=O)c1ccnc(N2CCc3ccc(Oc4ccc(C(F)(F)F)cc4)cc3C2)c1 [P-0230, 2-(7-(4-(trifluorometh-yl)phenoxy)-3,4-dihydro-isoquinolin-2(1H)-yl)-pyridine-4-sulfonamide] | 0.001 to 10
CNC(=O)c1cncc(N2CCc3ccc(Oc4ccc(C(F)(F)F)cc4)cc3C2)n1 [P-0231, N-methyl-6-(7-(4-(trifluoromethyl)phen-oxy)-3,4-dihydroisoquin-olin-2(1H)-yl)pyrazine-2-carboxamide] | 0.001 to 10
O=C(NC1CCCC1)N1CCc2c(cccc2Oc2ccc(C(F)(F)F)cc2)C1 [P-0232, N-cyclopentyl-5-(4-(trifluoromethyl)phen-oxy)-3,4-dihydroisoquin-oline-2(1H)-carboxamide] | 0.001 to 10
CC(C)NC(=O)N1CCc2c(cccc2Oc2ccc(C(F)(F)F)cc2)C1 [P-0233, N-isopropyl-5-(4-(trifluoromethyl)phen-oxy)-3,4-dihydroisoquin-oline-2(1H)-carboxamide] | 0.001 to 10
CC(C)C(=O)N1CCc2c(cccc2Oc2ccc(C(F)(F)F)cc2)C1 [P-0234, 2-methyl-1-(5-(4-(trifluoromethyl)phen-oxy)-3,4-dihydroisoquin-olin-2(1H)-yl)propan-1-one] | 0.001 to 10
CC(C)S(=O)(=O)N1CCc2c(cccc2Oc2ccc(C(F)(F)F)cc2)C1 [P-0235, 2-(isopropylsulfonyl)-5-(4-(trifluoromethyl)phen-oxy)-1,2,3,4-tetrahydro-isoquinoline] | 0.001 to 10
O=S(=O)(C1CCCC1)N1CCc2c(cccc2Oc2ccc(C(F)(F)F)cc2)C1 [P-0236, 2-(cyclopentylsulfonyl)-5-(4-(trifluoromethyl)-phenoxy)-1,2,3,4-tetra-hydroisoquinoline] | 0.001 to 10
O=C(Nc1ccccc1)N1CCc2c(cccc2Oc2ccc(C(F)(F)F)cc2)C1 [P-0237, N-phenyl-5-(4-(trifluoro-methyl)phenoxy)-3,4-dihydroisoquinoline-2(1H)-carboxamide] | 0.001 to 10
CCS(=O)(=O)NC(=O)N1CCc2c(cccc2Oc2ccc(C(F)(F)F)cc2)C1 [P-0238, N-(ethylsulfonyl)-5-(4-(trifluoromethyl)phen-oxy)-3,4-dihydroisoquin-oline-2(1H)-carboxamide] | 0.001 to 10
N#CCCC(=O)N1CCc2c(cccc2Oc2ccc(C(F)(F)F)cc2)C1 [P-0239, 4-oxo-4-(5-(4-(trifluoromethyl)phenoxy)-3,4-dihydroisoquinolin-2(1H)-yl)butanenitrile] | 0.001 to 10
Nc1nc(C(=O)N2CCc3c(cccc3Oc3ccc(C(F)(F)F)cc3)C2)cs1 [P-0240, (2-aminothiazol-4-yl)(5-(4-(trifluoromethyl)phen-oxy)-3,4-dihydroisoquin-olin-2(1H)-yl)methanone] | 0.001 to 10
O=C(Cc1ccn[nH]1)N1CCc2c(cccc2Oc2ccc(C(F)(F)F)cc2)C1 [P-0241, 2-(1H-pyrazol-5-yl)-1-(5-(4-(trifluoromethyl)-phenoxy)-3,4-dihydroiso-quinolin-2(1H)-yl)ethan-1-one] | 0.001 to 10
O=C(Cc1cnc[nH]1)N1CCc2c(cccc2Oc2ccc(C(F)(F)F)cc2)C1 [P-0242, 2-(1H-imidazol-5-yl)-1-(5-(4-(trifluoromethyl)-phenoxy)-3,4-dihydroiso-quinolin-2(1H)-yl)ethan-1-one] | 0.001 to 10
O=C(CCc1cnc[nH]1)N1CCc2c(cccc2Oc2ccc(C(F)(F)F)cc2)C1 [P-0243, 3-(1H-imidazol-5-yl)-1-(5-(4-(trifluoromethyl)-phenoxy)-3,4-dihydroiso-quinolin-2(1H)-yl)pro-pan-1-one] | 0.001 to 10
Nc1cncc(C(=O)N2CCc3c(cccc3Oc3ccc(C(F)(F)F)cc3)C2)n1 [P-0244, (6-aminopyrazin-2-yl)(5-(4-(trifluoromethyl)phen-oxy)-3,4-dihydroisoquin-olin-2(1H)-yl)methanone] | 0.001 to 10
Nc1ccc(C(=O)N2CCc3c(cccc3Oc3ccc(C(F)(F)F)cc3)C2)cn1 [P-0245, (6-aminopyridin-3-yl)(5-(4-(trifluoromethyl)phen-oxy)-3,4-dihydroisoquin-olin-2(1H)-yl)methanone] | 0.001 to 10
O=C(Cc1cocn1)N1CCc2c(cccc2Oc2ccc(C(F)(F)F)cc2)C1 [P-0246, 2-(oxazol-4-yl)-1-(5-(4-(trifluoromethyl)phen-oxy)-3,4-dihydroisoquin-olin-2(1H)-yl)ethan-1-one] | 0.001 to 10
O=C(Cc1cn[nH]c1)N1CCc2c(cccc2Oc2ccc(C(F)(F)F)cc2)C1 [P-0247, 2-(1H-pyrazol-4-yl)-1-(5-(4-(trifluoromethyl)-phenoxy)-3,4-dihydroiso-quinolin-2(1H)-yl)ethan-1-one] | 0.001 to 10

Structure (SMILES) | IC50 [µM]
O=C(CCc1cn[nH]c1)N1CCc2c(cccc2Oc2ccc(C(F)(F)F)cc2)C1 [P-0248, 3-(1H-pyrazol-4-yl)-1-(5-(4-(trifluoromethyl)-phenoxy)-3,4-dihydro-isoquinolin-2(1H)-yl)pro-pan-1-one] | 0.001 to 10
O=C(CCc1ncc[nH]1)N1CCc2c(cccc2Oc2ccc(C(F)(F)F)cc2)C1 [P-0249, 3-(1H-imidazol-2-yl)-1-(5-(4-(trifluoromethyl)-phenoxy)-3,4-dihydro-isoquinolin-2(1H)-yl)pro-pan-1-one] | 0.001 to 10
O=C(CCn1cnnc1)N1CCc2c(cccc2Oc2ccc(C(F)(F)F)cc2)C1 [P-0250, 3-(4H-1,2,4-triazol-4-yl)-1-(5-(4-(trifluoromethyl)-phenoxy)-3,4-dihydro-isoquinolin-2(1H)-yl)-propan-1-one] | 0.001 to 10
O=C(Cc1nnc[nH]1)N1CCc2c(cccc2Oc2ccc(C(F)(F)F)cc2)C1 [P-0251, 2-(4H-1,2,4-triazol-3-yl)-1-(5-(4-(trifluoromethyl)-phenoxy)-3,4-dihydroiso-quinolin-2(1H)-yl)ethan-1-one] | 0.001 to 10
O=C(Cc1cn[nH]c1O)N1CCc2c(cccc2Oc2ccc(C(F)(F)F)cc2)C1 [P-0252, 2-(5-hydroxy-1H-pyr-azol-4-yl)-1-(5-(4-(trifluoromethyl)phen-oxy)-3,4-dihydroisoquin-olin-2(1H)-yl)ethan-1-one] | 0.001 to 10
C=CC(=O)N1CCC(C(=O)N2CCc3c(cccc3Oc3ccc(C(F)(F)F)cc3)C2)C1 (stereo not shown) [P-0253, 1-(3-(5-(4-(trifluorometh-yl)phenoxy)-1,2,3,4-tetrahydroisoquinoline-2-carbonyl)pyrrolidin-1-yl)prop-2-en-1-one] | 0.001 to 10
O=C(CCS(=O)(=O)C(F)(F)F)N1CCc2c(cccc2Oc2ccc(C(F)(F)F)cc2)C1 [P-0254, 1-(5-(4-(trifluorometh-yl)phenoxy)-3,4-dihydro-isoquinolin-2(1H)-yl)-3-((trifluoromethyl)sul-fonyl)propan-1-one] | 0.001 to 10
C=CC(=O)N1CC(C(=O)N2CCc3c(cccc3Oc3ccc(C(F)(F)F)cc3)C2)C1 [P-0255, 1-(3-(5-(4-(trifluorometh-yl)phenoxy)-1,2,3,4-tetrahydroisoquinoline-2-carbonyl)azetidin-1-yl)prop-2-en-1-one] | 0.001 to 10
NC(=O)N1CCC(C(=O)N2CCc3c(cccc3Oc3ccc(C(F)(F)F)cc3)C2)C1 (stereo not shown) [P-0256, 3-(5-(4-(trifluorometh-yl)phenoxy)-1,2,3,4-tetrahydroisoquinoline-2-carbonyl)pyrrolidine-1-carboxamide] | 0.001 to 10
CN(C)CCCC(=O)N1CCc2c(cccc2Oc2ccc(C(F)(F)F)cc2)C1 [P-0263, 4-(dimethylamino)-1-(5-(4-(trifluoromethyl)phen-oxy)-3,4-dihydroisoquin-olin-2(1H)-yl)butan-1-one] | 0.001 to 10
CC(C)(O)CC(=O)N1CCc2c(cccc2Oc2ccc(C(F)(F)F)cc2)C1 [P-0264, 3-hydroxy-3-methyl-1-(5-(4-(trifluoromethyl)-phenoxy)-3,4-dihydroiso-quinolin-2(1H)-yl)butan-1-one] | 0.001 to 10
C[C@H](NC(=O)N1CCc2c(cccc2Oc2ccc(C(F)(F)F)cc2)C1)C1CC1 [P-0265, (S)-N-(1-cyclopropyl-ethyl)-5-(4-(trifluoro-methyl)phenoxy)-3,4-dihydroisoquinoline-2(1H)-carboxamide] | 0.001 to 10
COCC(C)NC(=O)N1CCc2c(cccc2Oc2ccc(C(F)(F)F)cc2)C1 (stereo not shown) [P-0266, N-(1-methoxypropan-2-yl)-5-(4-(trifluorometh-yl)phenoxy)-3,4-dihydro-isoquinoline-2(1H)-carboxamide] | 0.001 to 10
O=C(CC1CCCCC1)N1CCc2c(cccc2Oc2ccc(C(F)(F)F)cc2)C1 [P-0267, 2-cyclohexyl-1-(5-(4-(trifluoromethyl)phen-oxy)-3,4-dihydroisoquin-olin-2(1H)-yl)ethan-1-one] | 10 to 100
C[C@@H](CO)NC(=O)N1CCc2c(cccc2Oc2ccc(C(F)(F)F)cc2)C1 [P-0268, (S)-N-(1-hydroxypropan-2-yl)-5-(4-(trifluorometh-yl)phenoxy)-3,4-dihydro-isoquinoline-2(1H)-carboxamide] | 0.001 to 10
CS(=O)(=O)CCC(=O)N1CCc2c(cccc2Oc2ccc(C(F)(F)F)cc2)C1 [P-0269, 3-(methylsulfonyl)-1-(5-(4-(trifluoromethyl)phen-oxy)-3,4-dihydroisoquin-olin-2(1H)-yl)propan-1-one] | 0.001 to 10
NC(=O)NCC(=O)N1CCc2c(cccc2Oc2ccc(C(F)(F)F)cc2)C1 [P-0270, 1-(2-oxo-2-(5-(4-(trifluoromethyl)phen-oxy)-3,4-dihydroisoquin-olin-2(1H)-yl)ethyl)urea] | 0.001 to 10
CS(=O)(=O)CCC(=O)N1CCc2c(cccc2-c2ccc(C(F)(F)F)cc2)C1 [P-0271, 3-(methylsulfonyl)-1-(5-(4-(trifluoromethyl)phen-yl)-3,4-dihydroisoquin-olin-2(1H)-yl)propan-1-one] | 0.001 to 10
